# Measured values taken from patent US20080293931A1, “Methods and compositions for the removal of nucleic acid amplification inhibitors” (priority 2006, published 2008).
# “Also recorded” adds a separate entry of the source. Where two headings read alike, the source gives them in different places.
# Legend:
# [1] = Humic acid (HA) removal from aqueous commercial HA solutions by PIR compounds, fluorimetric HA determination; parameters: key to ε values: ε = −log(1 − efficiency); efficiency = ([HA]i − [HA]f)/[HA]i; conditions: for Average Efficiency, ε / Avg Reduction Factor: aqueous humic samples seeded with E. coli DNA; for performance as PIR compound (in words): commercial humic acid solutions
# Experimental: Humic solutions were in 1×TAE buffer at RT with pH˜7. […] Samples from PIR experiments utilizing these materials were diluted, using 1×TAE, to concentrations falling within the linear response region representative of the humic material used.
# In this study, when samples were interrogated for humic acid concentrations via fluorimetry, known concentrations of commercial humic acids were compared to known concentrations of humic standards.
# FIG. 1 compares the HA removal from samples containing DNA of interest to the molar concentration of varied PIR compounds by plotting an HA reduction factor as the initial [HA] divided by [HA] following treatment with PIR compounds. The commercially available PIR kit, from Mo-BIO, is placed on FIG. 1 for comparison and was arbitrarily assigned a molar concentration of 1 for convenience. […] The data shown in FIG. 1 were generated from varied initial [HA], ranging from ˜5,000 to 300,000 mg/L HA. These varied initial [HA] values represent a “worst case” scenario and these are in comparison to initial [HA] in extractions from problematic soils generating humic acid concentrations typically less than 5,000 mg/L.
# FIG. 2 plots the data from the same experiments represented in FIG. 1, but applying a different approach for data metric. FIG. 2 plots a dimensionless HA removal efficiency (or efficacy) value versus the decade of dilution necessary for successful PCR. The efficiency of HA removal is defined in equation 1 as the initial [HA] minus the final [HA] divided by the initial [HA]. This is essentially a percent removal approach.
# Efficiency=[HA]i−[HA]f/[HA]; (1)
# To further discriminate efficiency values greater than 0.99, the efficiency was subtracted from the integer value of 1, and the −log was taken of 1-efficiency to generate a non-negative value indicative of HA removal efficiency with greater level of discrimination and resolution of values with high degrees of HA removal. This is described by equation 2.
# E. coli DNA = assay: PCR of seeded E. coli DNA after PIR treatment of aqueous HA samples (decade of dilution necessary for successful PCR); conditions: for Decade of dilution: 30 days storage; for Typical dilution decade for PCR / range of dilutions (dilution decade for PCR): aqueous humic samples seeded with E. coli DNA
# Experimental: Consideration of dilution factors for successful PCR must also be reviewed. In untreated soil extracts containing DNA of interest, successful PCR of the extracted DNA may occur when the polymerase inhibitor is diluted sufficiently such that inhibition is suppressed and PCR may occur. Typical values for the dilution decade at which PCR is successful in samples containing humic materials and DNA of interest are often around decade four (1×10^4). Accordingly, a dilution factor of 10,000 would be necessary for successful PCR in a typical soil extract/sample. This magnitude of dilution may also impact PCR sensitivity for DNA/species already present at low concentrations and result in not identifying an organism that was present in the original sample extract.
# Using this approach for presenting the HA removal data allows for the determination of a PIR compound's effectiveness for HA removal (ε) and compatibility for application in PCR systems via dilution data for PCR.
# [2] = Solubility of PIR compounds in aqueous solution; format: physicochemical; conditions: aqueous solution
# [3] = 4.0 M AMG in phosphate buffer, 30 days storage, 4 C., dark, HA avg ~10,000 mg/L
# [4] = 4.0 M AMG in phosphate buffer, 30 days storage, 25 C., dark, HA avg ~10,000 mg/L
# [5] = 4.0 M AMG in phosphate buffer, 30 days storage, 25 C., light, HA avg ~10,000 mg/L
# [6] = 4.0 M AMG in phosphate buffer, 30 days storage, −20 C., dark, HA avg ~10,000 mg/L
# [7] = 5.5 M AMG in phosphate buffer, 30 days storage, 4 C., dark, HA avg ~10,000 mg/L
# [8] = 5.5 M AMG in phosphate buffer, 30 days storage, 25 C., dark, HA avg ~10,000 mg/L
# [9] = 5.5 M AMG in phosphate buffer, 30 days storage, 25 C., light, HA avg ~10,000 mg/L
# [10] = 5.5 M AMG in phosphate buffer, 30 days storage, −20 C., dark, HA avg ~10,000 mg/L
# [11] = 0.1M DTPB in phosphate buffer, 30 days storage, 4 C., dark, HA avg 50,300 mg/L
# [12] = 0.1M DTPB in phosphate buffer, 30 days storage, 25 C., dark, HA avg 50,300 mg/L
# [13] = 0.1M DTPB in phosphate buffer, 30 days storage, 25 C., light, HA avg 50,300 mg/L
# [14] = 0.1M DTPB in phosphate buffer, 30 days storage, −20 C., dark, HA avg 50,300 mg/L
# [15] = 1.0M DTPB in phosphate buffer, 30 days storage, 4 C., dark, HA avg 50,300 mg/L
# [16] = 1.0M DTPB in phosphate buffer, 30 days storage, 25 C., dark, HA avg 50,300 mg/L
# [17] = 1.0M DTPB in phosphate buffer, 30 days storage, 25 C., light, HA avg 50,300 mg/L
# [18] = 1.0M DTPB in phosphate buffer, 30 days storage, −20 C., dark, HA avg 50,300 mg/L
# [19] = 2M DTPB in phosphate buffer, 30 days storage, 4 C., dark, HA avg 50,300 mg/L
# [20] = 2M DTPB in phosphate buffer, 30 days storage, 25 C., dark, HA avg 50,300 mg/L
# [21] = 2M DTPB in phosphate buffer, 30 days storage, 25 C., light, HA avg 50,300 mg/L
# [22] = 2M DTPB in phosphate buffer, 30 days storage, −20 C., dark, HA avg 50,300 mg/L
# [23] = PIR 1 M, HAi avg 6,500-12,300 depending on compound (Table 6 c2)
compound,measurement,setting,value
"N=C(N)NN [AMG, Aminoguanidine, reference compound]",HA reduction factor,[1]; [3],7
same,ε values,[1]; [3],0.83
same,HA reduction factor,[1]; [4],6
same,ε values,[1]; [4],0.81
same,HA reduction factor,[1]; [5],6
same,ε values,[1]; [5],0.80
same,HA reduction factor,[1]; [6],4
same,ε values,[1]; [6],0.65
same,ε values,"[1]; 4.0M AMG, 30 days storage",less than 1
same,HA reduction factor,[1]; [7],14
same,ε values,[1]; [7],1.15
same,HA reduction factor,[1]; [8],15
same,ε values,[1]; [8],1.16
same,HA reduction factor,[1]; [9],19
same,ε values,[1]; [9],1.13
same,HA reduction factor,[1]; [10],19
same,ε values,[1]; [10],1.28
same,ε values,"[1]; 5.5 M AMG, 30 days storage",less than 1.3
same,Typical HA reduction factors,"[1]; AMG 4.0 and 5.5 M, 30 days storage, HA ~10,000 mg/L",less than 20
same,"Average Efficiency, ε","[1]; PIR 4 M, HAi avg 35,000",0.77
same,Avg Reduction Factor,"[1]; PIR 4 M, HAi avg 35,000",6
same,performance as PIR compound (in words),[1],poor performance
same,Decade of dilution,"E. coli DNA; 4.0 M AMG in phosphate buffer, 4 C., dark, HA avg ~10,000 mg/L",2
same,Decade of dilution,"E. coli DNA; 4.0 M AMG in phosphate buffer, 25 C., dark, HA avg ~10,000 mg/L",2
same,Decade of dilution,"E. coli DNA; 4.0 M AMG in phosphate buffer, 25 C., light, HA avg ~10,000 mg/L",2
same,Decade of dilution,"E. coli DNA; 4.0 M AMG in phosphate buffer, −20 C., dark, HA avg ~10,000 mg/L",2
same,Decade of dilution,"E. coli DNA; 5.5 M AMG in phosphate buffer, 4 C., dark, HA avg ~10,000 mg/L",2
same,Decade of dilution,"E. coli DNA; 5.5 M AMG in phosphate buffer, 25 C., dark, HA avg ~10,000 mg/L",2
same,Decade of dilution,"E. coli DNA; 5.5 M AMG in phosphate buffer, 25 C., light, HA avg ~10,000 mg/L",2
same,Decade of dilution,"E. coli DNA; 5.5 M AMG in phosphate buffer, −20 C., dark, HA avg ~10,000 mg/L",2
same,Typical dilution decade for PCR,"E. coli DNA; PIR 4 M, HAi avg 35,000",4
same,range of dilutions (dilution decade for PCR),"E. coli DNA; PIR 4 M, HAi avg 35,000",3-4
same,dilution required for successful PCR products,E. coli DNA; both 4.0 and 5.5 M AMG,2 orders of magnitude
CC(=O)C[n+]1ccsc1,performance as PIR compound (in words),[1],did not perform well
"Nc1ccc(C(=O)C[n+]2ccsc2)cc1.[Br-] [PTB-A, 4-Amine-Phenacyl Thiazolium Bromide]",performance as PIR compound (in words),[1],did not perform well; also recorded: poor performance
"O=C(C[n+]1ccsc1)C[n+]1ccsc1 [DTPB, 1,3-Dithiazole-2-Propanone Dibromide]",HA reduction factor,[1]; [11],5
same,ε values,[1]; [11],0.70
same,HA reduction factor,[1]; [12],6
same,ε values,[1]; [12],0.76
same,HA reduction factor,[1]; [13],6
same,ε values,[1]; [13],0.75
same,HA reduction factor,[1]; [14],7
same,ε values,[1]; [14],0.87
same,HA reduction factor,[1]; [15],143
same,ε values,[1]; [15],2.16
same,HA reduction factor,[1]; [16],160
same,ε values,[1]; [16],2.20
same,HA reduction factor,[1]; [17],194
same,ε values,[1]; [17],2.29
same,HA reduction factor,[1]; [18],114
same,ε values,[1]; [18],2.06
same,HA reduction factor,[1]; [19],64
same,ε values,[1]; [19],1.81
same,HA reduction factor,[1]; [20],99
same,ε values,[1]; [20],1.99
same,HA reduction factor,[1]; [21],107
same,ε values,[1]; [21],2.03
same,HA reduction factor,[1]; [22],50
same,ε values,[1]; [22],1.70
same,"Average Efficiency, ε",[1]; [23],2.18
same,Avg Reduction Factor,[1]; [23],153
same,performance as PIR compound (in words),[1],poor performance
same,Decade of dilution,"E. coli DNA; 0.1M DTPB in phosphate buffer, 4 C., dark, HA avg 50,300 mg/L",2
same,Decade of dilution,"E. coli DNA; 0.1M DTPB in phosphate buffer, 25 C., dark, HA avg 50,300 mg/L",2
same,Decade of dilution,"E. coli DNA; 0.1M DTPB in phosphate buffer, 25 C., light, HA avg 50,300 mg/L",2
same,Decade of dilution,"E. coli DNA; 0.1M DTPB in phosphate buffer, −20 C., dark, HA avg 50,300 mg/L",2
same,Decade of dilution,"E. coli DNA; 1.0M DTPB in phosphate buffer, 4 C., dark, HA avg 50,300 mg/L",1
same,Decade of dilution,"E. coli DNA; 1.0M DTPB in phosphate buffer, 25 C., dark, HA avg 50,300 mg/L",1
same,Decade of dilution,"E. coli DNA; 1.0M DTPB in phosphate buffer, 25 C., light, HA avg 50,300 mg/L",1
same,Decade of dilution,"E. coli DNA; 1.0M DTPB in phosphate buffer, −20 C., dark, HA avg 50,300 mg/L",1
same,Decade of dilution,"E. coli DNA; 2M DTPB in phosphate buffer, 4 C., dark, HA avg 50,300 mg/L",1
same,Decade of dilution,"E. coli DNA; 2M DTPB in phosphate buffer, 25 C., dark, HA avg 50,300 mg/L",1
same,Decade of dilution,"E. coli DNA; 2M DTPB in phosphate buffer, 25 C., light, HA avg 50,300 mg/L",1
same,Decade of dilution,"E. coli DNA; 2M DTPB in phosphate buffer, −20 C., dark, HA avg 50,300 mg/L",1
same,Typical dilution decade for PCR,E. coli DNA; [23],2
same,range of dilutions (dilution decade for PCR),E. coli DNA; [23],1-2
"O=C(C[n+]1ccsc1)c1ccccc1 [PTB, Phenacyl Thiazolium Bromide, reference compound]",solubility,"[2]; aqueous solutions, read-out: solubility in aqueous solutions (molar solubility)",< 1000 mM
same,solubility,"[2]; starred values of column PIR, M (footnote of Table 6), read-out: maximum molar solubility",1000 mM
